Columns and labels:
[1] = tested on: Axinella corrugata cell cultures; test: Fluorescent assays of DNA and protein content in PHA-treated cultures; format: cell-based; conditions: 6 replicate comparisons, observed between 6 and 18 hours after treatment
Source text: Sponge Cells. Cells were obtained from cryopreserved stocks at Harbor Branch Oceanographic Institution. All cells were derived from Axinella corrugata specimens collected in the waters of Florida, the Bahamas, and the Caribbean Sea, and were cryopreserved according to Pomponi et al. (Pomponi et al. 1997b supra). This sponge is relatively common and easy to collect, amenable to culture efforts, and produces the bioactive compound, stevensine, in vitro (Pomponi et al. 1997b supra). Enriched fractions of dissociated sponge cells were prepared, cryopreserved, and thawed according to previously published methods (Pomponi et al. 1997b supra). Cells were incubated at 22–25° C. in a growth medium consisting of a modified and supplemented commercial formulation (Willoughby and Pomponi 2000 supra). The length of the incubation period was based on my unpublished observation of elevated DNA and protein contents (9%, P=0.034, and 9%, P=0.038, respectively) in PHA-treated cultures, according to fluorescent assays of 6 replicate comparisons (Willoughby and Pomponi 2000 supra). Since the effects were observed between 6 and 18 hours after treatment, cells were cultured for 12-hour periods representing the center point of the period of observed changes. […]

[2] = tested on: TIB-155 murine lymphocytes; test: Microarray analysis of gene expression, PHA-treated vs untreated murine lymphocytes; format: cell-based; conditions: significant regulation, opposite to sponge cells
Procedure: Murine Cells. Following the same experimental design as described for sponge cells, TIB-155 murine lymphocytes were cultured in the American Type Culture Collection-specified growth medium (RPMI 1640 with 0.05 mM 2-mercaptoethanol and 10% fetal bovine serum).

With phytohemagglutinin [PHA] the “elevated DNA content in PHA-treated cultures” value ([1]; P=0.034) was 9%, the “elevated protein content in PHA-treated cultures” value ([1]; P=0.038) was 9% and the “COUP transcription factor regulation in murine cells” value [2] was “higher signal in the PHA-treated murine cells”.
